Measurements published in patent US5602278A (priority 1994, dated 1997).
“Also recorded” adds a separate entry of the source.

Legend:
hypoxic cells = conditions: Wilson et al., 1992; cited from earlier work
[1] = In vitro metabolism by rat liver microsomes under hypoxic or oxic conditions
[2] = system: CaNT murine adenocarcinoma; parameters: species or system CBA/Gy fTO mice; conditions: mouse
[3] = system: EMT6 mouse mammary carcinoma cells

SMILES | ability to diffuse into the extravascular compartment of tumors (hypoxic cells) | selectivity for hypoxic cells (hypoxic cells) | dependence of rate of metabolism on amount of cyt P450 ([1]; hypoxia, NADPH 1 mM, microsomes 2.0-5.2 nmol cyt P450/ml) | metabolism ([1]; in air or in the presence of boiled microsomes) | metabolism with NADPH ([1]; in the presence of NADPH, microsomes, hypoxia) | major enzyme responsible for activation ([1]; microsomal bioreductive activation) | effect of CO on reductive metabolism ([1]; microsomes 2.9 nmol cyt P450/ml, NADPH 1 mM, hypoxia) | metabolism ([1]; microsomes and cofactors NADH or NADPH, under hypoxia) | conditions required for conversion to an activated alkylating species ([1]; rat liver microsomes, cofactors, inhibitors) | potentiation of in vivo cytotoxicity by hydralazine [2] | activity compared to radiation, with concomitant hydralazine ([2]; in vivo) | in vivo toxicity | effect of hypoxia and lowered pH on cytotoxicity [3] | effect of lowered extracellular pH on activity [3] | toxicity with reducing enzymes under hypoxia [3]
C[N+](C)([O-])CCCNc1c2ccccc2nc2cccc([N+](=O)[O-])c12 [SN 24030] | improved ability to diffuse into the extravascular compartment of tumors | approximately 1500 fold | – | – | – | – | – | – | – | – | – | – | – | – | –
O=C(O)CCCc1ccc(N(CCCl)OCCCl)cc1 [CHL-HD, 4-[p-(N-2-chloroethoxy N-2-chloroethylamino)phenyl] butanoic acid] | – | – | there is a relationship between the amount of cyt P450 in the metabolic reaction mixture and the rate of metabolism | very little if any metabolism | metabolism occurs more readily at lower concentrations of cofactor | appears to be cyt P450 | CO inhibits the ability of microsomes to metabolize CHL-HD | is metabolized | reducing enzymes, co-factors and hypoxia were needed to activate CHL-HD to an alkylating species; also recorded: requires hypoxia and reducing enzymes and cofactors | potentiated by the administration of hydralazine 5 min prior or 30 post; also recorded: potentiated by hydralazine | enhanced activity as compared to radiation | minimal in vivo toxicity | both hypoxia and lowered pH in the presence of reducing enzymes potentiate to cytotoxicity | enhance when the extracellular pH is lowered below the physiological 7.4 | greater toxicity with reducing enzymes under hypoxia
